Assays:
DHODH of mice = conditions: read-out: IC50 value for DHODH; cited from earlier work
DHODH of rats = conditions: read-out: IC50 value for DHODH; cited from earlier work
DHODH of humans = conditions: read-out: IC50 value for DHODH; cited from earlier work
DHODH of A. fumigatus = conditions: read-out: IC50 value for DHODH; cited from earlier work
P. oryzae 40901 = type: cell-based, Pyricularia oryzae
P. oryzae = type: cell-based, Pyricularia oryzae
Fusarium graminearum = conditions: cited from earlier work
Sclerotinia sclerotiorum = conditions: cited from earlier work

For `C/C(O)=C(\C#N)C(=O)Nc1ccc(C(F)(F)F)cc1` [A77-1726, teriflunomide], the IC50 (DHODH of mice) is given as 82 ± 21 nM, the IC50 (DHODH of rats) is given as 18 ± 3 nM and the IC50 (DHODH of humans) is given as 773 ± 78 nM.
In the case of `Cc1cc(-c2ccccc2)c(C(=O)C(=O)Nc2ccc(N3CCN(c4ncc(F)cn4)CC3)cc2)n1C` [F901318, olorofim], the IC50 (DHODH of A. fumigatus) is given as 44 ± 10 nM.
In the case of `CC1(C)N=C(c2cnc3ccccc3c2)c2ccccc2C1(F)F` [quinofumelin, 3-(4,4-difluoro-3,3-dimethyl-3,4-dihydroisoquinolin-1-yl)quinoline], the “mycelial growth on minimal medium agar plates” value (P. oryzae 40901) is reported as “could not be recognized”, the “mycelial growth with exogenous orotate at high quinofumelin concentration” value (P. oryzae 40901) is reported as “slow mycelial growth” and the “recovery of mycelial growth by exogenous dihydroorotate” value (P. oryzae 40901) is reported as “did not recover”. The “recovery of mycelial growth by exogenous orotate” value (P. oryzae 40901) was “recovered”, the “recovery of mycelial growth by exogenous uracil” value (P. oryzae 40901) was “restored” and the “antifungal activity on PDA medium” value (P. oryzae) was “moderate antifungal activity”. The “antifungal activity on PDA medium” value (Fusarium graminearum) was “strong antifungal activity” and the “antifungal activity on PDA medium” value (Sclerotinia sclerotiorum) was “strong antifungal activity”.

Reference: publication PMC9716045 (Journal of Pesticide Science, 2022)
